Test results published in article PMC4382313 (Chembiochem : a European journal of chemical biology, 2014).

Biological target: WelP2 (Hapalosiphon welwitschii, UniProt A0A067YX78)
Test: in vitro prenyl diphosphate synthase assay
Type: biochemical
Conditions: product formed; details in SI Methods

## CC(C)=CCC/C(C)=C/COP(=O)(O)OP(=O)(O)O [GPP]
  in vitro prenyl diphosphate synthase assay: demonstrated that WelP2 is a dedicated geranyl diphosphate synthase to provide GPP (SI Methods)
